Reference: ChEMBL document CHEMBL1139639, “A three-residue, continuous binding epitope peptidomimetic of ShK toxin as a Kv1.3 inhibitor” (Bioorg Med Chem Lett, 2005)

Molecular target: Potassium voltage-gated channel subfamily A member 3 (Mus musculus, UniProt P16390)
Assay: Effective concentration against murine voltage-gated potassium channel subunit Kv1.3 expressed in L929 cells using patch clamp
Format: cell-based

Sequence of Potassium voltage-gated channel subfamily A member 3 (P16390 whole entry): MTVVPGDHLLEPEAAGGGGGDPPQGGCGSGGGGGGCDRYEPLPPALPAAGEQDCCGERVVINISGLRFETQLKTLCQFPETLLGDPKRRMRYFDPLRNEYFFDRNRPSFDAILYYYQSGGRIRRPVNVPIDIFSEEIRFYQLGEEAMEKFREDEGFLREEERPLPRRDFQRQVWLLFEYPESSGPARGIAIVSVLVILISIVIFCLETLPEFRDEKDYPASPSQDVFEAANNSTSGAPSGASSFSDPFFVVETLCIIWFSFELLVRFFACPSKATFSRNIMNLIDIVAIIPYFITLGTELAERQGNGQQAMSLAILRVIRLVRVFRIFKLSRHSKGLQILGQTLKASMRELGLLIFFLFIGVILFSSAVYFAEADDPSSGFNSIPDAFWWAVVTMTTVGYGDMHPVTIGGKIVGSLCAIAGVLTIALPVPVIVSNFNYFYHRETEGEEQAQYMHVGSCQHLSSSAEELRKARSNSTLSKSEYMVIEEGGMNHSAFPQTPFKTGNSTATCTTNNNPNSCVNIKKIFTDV

- EC50: 75 µM
SMILES: NCCCCNC(=O)c1ccc(CN=C(N)N)c2ccn(CCc3ccccc3)c12
